Data from patent publication US11492361B2, “Compounds useful in HIV therapy” (GlaxoSmithKline Intellectual Property Development Limited, priority 2018, dated 2022).
Where a name gives a salt, the structure may show the parent alone.

Each compound was assayed on Jurkat HIV-luciferase clones (assay: Jurkat latency reversal assay). Settings: Homo sapiens, Jurkat, 48 h.
Type: cell-based
Procedure: Jurkat HIV-luciferase clones were maintained in RPMI medium 1640 (Gibco by Life Technologies) containing 10% (vol/vol) fetal bovine serum (SAFC/Sigma-Aldrich) and 25 units/mL penicillin, 25 units/mL streptomycin (Gibco by Life Technologies), and were split 1:4 every 3 to 4 days to maintain a cell density of ˜0.3 to 1 million cells/mL. The Jurkat clones were maintained with the addition of 500 nM EFV in the medium. Three Jurkat cell clones (C16, I15, and N6), each harboring one or two integrated HIV proviruses expressing the luciferase reporter gene, were added at equal amounts for a total of 5,000 cells per well to 384-well plates containing compound titrations. Dose-response testing was performed on compounds dissolved in dimethyl sulfoxide (DMSO, Fisher Scientific, Merelbeke, Belgium) dispensed in duplicate serial 3-fold, 14-point titrations using a D300e Digital Droplet Dispenser (Hewlett-Packard) to give final assay concentrations of 10 μM to 2.1 pM in 50 μL of medium at 0.5% DMSO (vol/vol) final concentration. Cells and compound were incubated at 37° C. for 48 hours, unless otherwise indicated, followed by the addition of 20 μL of Steady-Glo® Luciferase (Promega). Luminescence resulting from the induction of the virally expressed luciferase was measured using an EnVision 2102 Multilabel Plate Reader (Perkin Elmer). Dose-response relationships were analyzed with GraphPad PRISM 6 using a four-parameter logistic regression model to calculate the concentration of compound that gives half-maximal response (EC50) and the maximal percent activation compared to the vehicle control.

Compound	EC50 [nM]
CN[C@@H](C)C(=S)N[C@H]1CCS[C@H]2CC(C)(C)[C@@H](C(=O)N[C@H](COCCCCOC[C@@H](NC(=O)[C@H]3N4C(=O)[C@@H](NC(=S)[C@H](C)NC)CCS[C@H]4CC3(C)C)c3ccccc3)c3ccccc3)N2C1=O [compound 37, (4S,4′S,7S,7′S,9aS,9a′S)-N,N′-((1S,1′S)-(butane-1,4-diylbis(oxy))bis(1-phenylethane-2,1-diyl))bis(8,8-dimethyl-4-((S)-2-(methylamino)propanethioamido)-5-oxooctahydropyrrolo[2,1-b][1,3]thiazepine-7-carboxamide) dihydrochloride]	10.9
CN[C@@H](C)C(=O)N[C@H]1CCS[C@H]2CC(C)(C)[C@@H](C(=O)N[C@H](COCc3ccc4ccc(COC[C@@H](NC(=O)[C@H]5N6C(=O)[C@@H](NC(=O)[C@H](C)NC)CCS[C@H]6CC5(C)C)c5ccccc5)cc4c3)c3ccccc3)N2C1=O [compound 56, (4S,4′S,7S,7′S,9aS,9a′S)-N,N′-((1S,1′S)-((naphthalene-2,7-diylbis(methylene))bis(oxy))bis(1-phenylethane-2,1-diyl))bis(8,8-dimethyl-4-((S)-2-(methylamino)propanamido)-5-oxooctahydropyrrolo[2,1-b][1,3]thiazepine-7-carboxamide)]	2.9
CN[C@@H](C)C(=O)N[C@H]1CCS[C@H]2CC(C)(C)[C@@H](C(=O)N[C@H]3c4ccccc4C[C@H]3OCCCCCCCCCCO[C@@H]3Cc4ccccc4[C@@H]3NC(=O)[C@H]3N4C(=O)[C@@H](NC(=O)[C@H](C)NC)CCS[C@H]4CC3(C)C)N2C1=O [compound 57, (4S,4′S,7S,7′S,9aS,9a′S)-N,N′-((1S,1′S,2R,2′R)-(decane-1,10-diylbis(oxy))bis(2,3-dihydro-1H-indene-2,1-diyl))bis(8,8-dimethyl-4-((S)-2-(methylamino)propanamido)-5-oxooctahydropyrrolo[2,1-b][1,3]thiazepine-7-carboxamide) dihydrochloride]	8.5
CN[C@@H](C)C(=O)N[C@H]1CCS[C@H]2CC(C)(C)[C@@H](C(=O)N[C@H](COCCCCCCCCOC[C@@H](NC(=O)[C@H]3N4C(=O)[C@@H](NC(=O)[C@H](C)NC)CCS[C@H]4CC3(C)C)c3ccccc3)c3ccccc3)N2C1=O [compound 58, (4S,4′S,7S,7′S,9aS,9a′S)-N,N′-((1S,1′S)-(octane-1,8-diylbis(oxy))bis(1-phenylethane-2,1-diyl))bis(8,8-dimethyl-4-((S)-2-(methylamino)propanamido)-5-oxooctahydropyrrolo[2,1-b][1,3]thiazepine-7-carboxamide) dihydrochloride]	4.5
CN[C@@H](C)C(=O)NC1CCS[C@H]2CC(C)(C)[C@@H](C(=O)N[C@H]3c4ccccc4CC[C@H]3C(=O)NCc3ccc(CNC(=O)[C@@H]4CCc5ccccc5C4NC(=O)[C@H]4N5C(=O)[C@@H](NC(=O)[C@H](C)NC)CCS[C@H]5CC4(C)C)cc3)N2C1=O (stereo in doubt) [compound 9, (4S,4′S,7S,7′S,9aS,9a′S)-N,N′-((1R,1′R,2R,2′R)-(((1,4-phenylenebis(methylene))bis(azanediyl))bis(carbonyl))bis(1,2,3,4-tetrahydronaphthalene-2,1-diyl))bis(8,8-dimethyl-4-((S)-2-(methylamino)propanamido)-5-oxooctahydropyrrolo[2,1-b][1,3]thiazepine-7-carboxamide) dihydrochloride]	90.3
CN[C@@H](C)C(=O)N[C@H]1CCS[C@H]2CC(C)(C)[C@@H](C(=O)N[C@H](COCC#CC#CCOC[C@@H](NC(=O)[C@H]3N4C(=O)[C@@H](NC(=S)[C@H](C)NC)CCS[C@H]4CC3(C)C)c3ccccc3)c3ccccc3)N2C1=O [compound 34, (4S,7S,9aS)-N-((S)-2-((6-((S)-2-((4S,7S,9aS)-8,8-dimethyl-4-((S)-2-(methylamino)propanamido)-5-oxooctahydropyrrolo[2,1-b][1,3]thiazepine-7-carboxamido)-2-phenylethoxy)hexa-2,4-diyn-1-yl)oxy)-1-phenylethyl)-8,8-dimethyl-4-((S)-2-(methylamino)propanethioamido)-5-oxooctahydropyrrolo[2,1-b][1,3]thiazepine-7-carboxamide]	36.3
CN[C@@H](C)C(=S)N[C@H]1CCS[C@H]2CC(C)(C)[C@@H](C(=O)NC3c4ccccc4CC[C@H]3C(=O)N3CCN(C(=O)[C@@H]4CCc5ccccc5C4NC(=O)[C@H]4N5C(=O)[C@@H](NC(=S)[C@H](C)NC)CCS[C@H]5CC4(C)C)CC3)N2C1=O (stereo in doubt) [compound 8, (4S,4′S,7S,7′S,9aS,9a′S)-N,N′-((1R,1′R,2R,2′R)-(piperazine-1,4-dicarbonyl)bis(1,2,3,4-tetrahydronaphthalene-2,1-diyl))bis(8,8-dimethyl-4-((S)-2-(methylamino)propanethioamido)-5-oxooctahydropyrrolo[2,1-b][1,3]thiazepine-7-carboxamide) dihydrochloride]	2.4
CN[C@@H](C)C(=O)N[C@H]1CCS[C@H]2CC(C)(C)[C@@H](C(=O)N[C@H](C(=O)NCC#CC#CCNC(=O)[C@@H](NC(=O)[C@H]3N4C(=O)[C@@H](NC(=O)[C@H](C)NC)CCS[C@H]4CC3(C)C)c3ccccc3)c3ccccc3)N2C1=O [compound 30, (4S,4′S,7S,7′S,9aS,9a′S)-N,N′-((1S,1′S)-(hexa-2,4-diyne-1,6-diylbis(azanediyl))bis(2-oxo-1-phenylethane-2,1-diyl))bis(8,8-dimethyl-4-((S)-2-(methylamino)propanamido)-5-oxooctahydropyrrolo[2,1-b][1,3]thiazepine-7-carboxamide) dihydrochloride]	65.4
CN[C@@H](C)C(=O)N[C@H]1CCS[C@H]2CC(C)(C)[C@@H](C(=O)N[C@H](COCCOCCOC[C@@H](NC(=O)[C@H]3N4C(=O)[C@@H](NC(=O)[C@H](C)NC)CCS[C@H]4CC3(C)C)c3ccccc3)c3ccccc3)N2C1=O [compound 38, (4S,4′S,7S,7′S,9aS,9a′S)-N,N′-((1S,1′S)-((oxybis(ethane-2,1-diyl))bis(oxy))bis(1-phenylethane-2,1-diyl))bis(8,8-dimethyl-4-((S)-2-(methylamino)propanamido)-5-oxooctahydropyrrolo[2,1-b][1,3]thiazepine-7-carboxamide)]	50.7
CN[C@@H](C)C(=S)N[C@H]1CCS[C@H]2CC(C)(C)[C@@H](C(=O)N[C@H]3c4ccccc4C[C@H]3C(=O)N3CCN(C(=O)[C@@H]4Cc5ccccc5[C@@H]4NC(=O)[C@H]4N5C(=O)[C@@H](NC(=S)[C@H](C)NC)CCS[C@H]5CC4(C)C)CC3)N2C1=O [compound 47, (4S,7S,9aS)-N-[(1R,2R)-2-{4-[(1R,2R)-1-[(4S,7S,9aS)-8,8-dimethyl-4-[(2S)-2-(methylamino)propanethioamido]-5-oxo-octahydropyrrolo[2,1-b][1,3]thiazepine-7-amido]-2,3-dihydro-1H-indene-2-carbonyl]piperazine-1-carbonyl}-2,3-dihydro-1H-inden-1-yl]-8,8-dimethyl-4-[(2S)-2-(methylamino)propanethioamido]-5-oxo-octahydropyrrolo[2,1-b][1,3]thiazepine-7-carboxamide]	1.2
